Test results as given in the NIST ThermoML archive (doi:10.1016/j.jct.2019.04.021).
Numbers after ± are expanded uncertainties.

Conditions: 298 K; 101.33 kPa; Crystal; X-ray diffraction

- mass density: 7060.5 ± 7.2 kg/m3
SMILES: [O-2].[O-2].[O-2].[Pr+3].[Pr+3] [praseodymium oxide (Pr2O3)]
